In US20060147456A1, “Induction of apoptosis in toll-like receptor expressing tumor cells” (priority 2004, published 2006):

How the values were obtained:
[1] = system: Cama-1, SW527, BT483 and MCF-7; assay: Cell recovery by crystal violet staining, four breast tumor cell lines together; assay type: cell-based, human; details: 72 h; 5 μg/ml PGN, 50 μg/ml Poly IC or 10 μg/ml LPS; average of the four cell lines
Method: (§1) Cell recovery after treatment with TLR ligands was measured by crystal violet staining (Sigma-Aldrich). Cells were plated at 10^4 cells/well in 96 well plates. After 72 hours of culture either with or without TLR ligand, the cells were washed with PBS, fixed in 6% formaldehyde (Sigma-Aldrich) for 20 minutes, washed twice, and then stained with 0.1% crystal violet for 10 minutes. After washes and incubation in 1% SDS for 1 hour, the absorbance was read at 605 nm on a Vmax plate reader (Molecular Devices, Sunnyvale, Calif.). Annexin V staining was performed with an annexin-FITC apoptosis detection kit (BD Pharmingen, San Diego, Calif.) according to the manufacturer's instructions. Sub-diploid cells were detected by staining with 3 μg/mL propidium iodide (PI) (Molecular probes, Eugene, Oreg.), after overnight permeabilization in 70% ethanol. Fluorescence was analyzed by flow cytometry on a FACScalibur (Becton Dickinson, Mountain View, Calif.) equipped with a doublet-discrimination module and using Celiquest Pro software (Becton Dickinson).
(§2) Four human breast tumor cell lines, Cama-1, SW527, BT483 and MCF-7, were analyzed for cell death in response to Poly IC. Cells were cultured for 72 hours with 5 μg/ml PGN, 50 μg/ml Poly IC or 10 μg/ml LPS. Control cells were cultured with PBS. Cytotoxicity was assessed by crystal violet staining and expressed as a percent of control.
Furthermore, additional TLR ligands were tested to determine any possible effects on cellular toxicity. The ligands tested were PGN, LPS, Flagellin, R848 and CpG. Cells were cultured for 72 hours with 5 μg/ml PGN, 10 μg/ml LPS, 50 ng/ml flagellin, 6 μg/ml R848, 10 μg/ml CpG ODNs, or with PBS as control. Cell recovery was assessed by crystal violet staining and expressed as a percent of control.

BT483 = assay: Cell recovery by crystal violet staining; assay type: cell-based, human; details: 50 μg/ml Poly IC, 72 h
Method: as §1, §2

Cama-1 = assay: Cell recovery by crystal violet staining; assay type: cell-based, human; details: 50 μg/ml Poly IC, 72 h
Method: as §1, §2

MCF-7 = assay: Cell recovery by crystal violet staining; assay type: cell-based, human; details: 50 μg/ml Poly IC, 72 h
Method: as §1, §2

SW527 = assay: Cell recovery by crystal violet staining; assay type: cell-based, human; details: 50 μg/ml Poly IC, 72 h
Method: as §1, §2

TLR3 mRNA = TLR3 mRNA expression by RT-PCR in Cama-1 cells; assay type: cell-based, human; details: 48 h
Method: Cama-1 cells were analyzed for TLR3 mRNA expression in response to Poly IC. Cama-1 cells were cultured in complete medium (DMEM F12 containing […] glucose and complemented with 2 mM L-glutamine, 10% fetal calf serum, 160 μg/mL gentalline, 2.5 mg/mL sodium bicarbonate) for 48 hours either alone or with LPS (5 μg/ml) and/or with Poly IC (5 μg/ml). The mRNA from each group of cells was extracted. The mRNA was then reverse-transcribed and PCR amplified for 35 cycles (as above in Example 1) with hTLR3 specific primers: TLR3F: […] (SEQ ID NO: 5) and TLR3R: […] (SEQ ID NO: 6). TLR3 mRNA could not be amplified from resting Cama-1 cells.
Amplified DNA from RT-PCR using hTLR3 specific primers was run on a gel.

IFN-β = assay: Western Blot of Cama-1 cell lysate for IFN-β; assay type: cell-based, human; details: 5 μg/ml Poly IC, 0 to 24 hours
Method: (§3) Cama-1 cells were lysed in 1% Nonidet-P40-containing buffer. 20 μg total protein was loaded per lane on SDS-Polyacrylamide gels (Invitrogen). Western Blots (WB) were performed with standard techniques using the antibodies described above. Anti IRAK-4 monoclonal antibodies were generated in the laboratory according to the protocol described in Fossiez et al., “T cell interleukin-17 induces stromal cells to produce proinflammatory and hematopoietic cytokines”, J. Exp. Med., vol. 183(6), pp. 2593-2603 (1996).
The involvement of type 1 interferon in TLR3 mediated apoptosis was evaluated. Cama-1 cells were incubated with 5 μg/ml Poly IC for either 0 hours, 1 hour, 6 hours, 18 hours or 24 hours. The presence of IFN-β, phosphorylated Stat1 (tyrosine 701) (P-Stat-1) and total Stat-1 in the cell lysate were analyzed by Western Blot.

Caspase 3 = assay: Western Blot for Caspase 3 in Cama-1 cells; assay type: cell-based, human; details: Poly IC treatment
Method: as §3
We next addressed the role of caspases in apoptosis. Cama-1 cells were pre-incubated with 25 μM of the general caspase inhibitor z-VAD-fmk or DMSO for 1 hour before culture for 24 hours with or without 5 μg/ml Poly IC or 25 ng/ml TNF-α (used as a positive control). Apoptosis was measured by annexin V staining and expressed as a percentage of apoptotic cell in the culture.
In another experiment, lysates from cells obtained above were analyzed by Western Blot for cleavage of PARP, Caspase 3 and Caspase 8.

SKBr3 cells = assay: Apoptosis analysis of SKBr3 cells; assay type: cell-based; details: for percentage of SKBr3 cells induced to apoptosis by Poly IC: summary statement
Method: We tried to further investigate whether any synergy exists between TLR3 ligands and type I IFN. The primary breast carcinoma cells SKBr3 were plated in 6 well plates at 3×10^5 cells per well. After overnight adherence, siRNA transfections were performed for 5 hours in OptiMEM medium (Life technologies) containing 3μg/mL lipofectamine 2000 (Invivogen) and 100 nM siRNA. Cells were transfected with either MOCK (water), TLR3 siRNA or PKR siRNA. Cells were then washed and cultured for 72 hours in complete medium before 24 hour treatment with 50 μg/ml Poly IC and apoptosis analysis.
In another experiment, we tried to determine whether IFN and Poly IC acted synergistically to induce apoptosis. SKBr3 cells were untreated or pre-treated with either 10 U/ml or 100 U/ml of a low dose mixture of IFN-α or IFN-β. Poly IC was administered in the following doses: 0, 0.5, 5 and 50 μg/ml for 48 hours.

## polyinosinic-polycytidylic acid [Poly IC]
[1]
  cell recovery, percent of control, on average: 67.5%
BT483
  cell recovery, percent of control: 67%
Cama-1
  cell recovery, percent of control: 33%
MCF-7
  cell recovery, percent of control: 100%
SW527
  cell recovery, percent of control: 75%
TLR3 mRNA; 5 μg/ml, agent alone
  TLR3 mRNA expression: induced
TLR3 mRNA; both Poly IC (5 μg/ml) and LPS (5 μg/ml)
  TLR3 expression on gel: showed TLR3 expression
IFN-β
  IFN-β production: strongly induced
Caspase 3
  caspase 3 activation: activated
SKBr3 cells; SKBr3, 0.5 μg/ml Poly IC 48 h, no IFN pre-treatment
  percentage of apoptotic cells: 15%
SKBr3 cells; SKBr3, 0.5 μg/ml Poly IC 48 h, pre-treated IFN-α/β 10 U/ml
  percentage of apoptotic cells: 45%
SKBr3 cells; SKBr3, 0.5 μg/ml Poly IC 48 h, pre-treated IFN-α/β 100 U/ml
  percentage of apoptotic cells: 55%
SKBr3 cells; SKBr3, 5 μg/ml Poly IC 48 h, no IFN pre-treatment
  percentage of apoptotic cells: 20%
SKBr3 cells; SKBr3, 5 μg/ml Poly IC 48 h, pre-treated IFN-α/β 10 U/ml
  percentage of apoptotic cells: 55%
SKBr3 cells; SKBr3, 5 μg/ml Poly IC 48 h, pre-treated IFN-α/β 100 U/ml
  percentage of apoptotic cells: 60%
SKBr3 cells; SKBr3, 50 μg/ml Poly IC 48 h, no IFN pre-treatment
  percentage of apoptotic cells: 20%
SKBr3 cells; SKBr3, 50 μg/ml Poly IC 48 h, pre-treated IFN-α/β 10 U/ml
  percentage of apoptotic cells: 55%
SKBr3 cells; SKBr3, 50 μg/ml Poly IC 48 h, pre-treated IFN-α/β 100 U/ml
  percentage of apoptotic cells: 60%
SKBr3 cells; SKBr3, type I IFN pre-treatment
  Poly IC concentration at which cells become sensitive to apoptosis, IFN pre-treated versus non-pretreated cells: one hundred fold lower
SKBr3 cells; SKBr3 MOCK group, 24 h, 50 μg/ml Poly IC, untreated 10%
  percentage of apoptotic cells: 22%
SKBr3 cells; SKBr3 PKR siRNA group, 24 h, 50 μg/ml Poly IC, untreated 12%
  percentage of apoptotic cells: 22%
SKBr3 cells; SKBr3 TLR3 siRNA group, 24 h, 50 μg/ml Poly IC, untreated 8%
  percentage of apoptotic cells: 13%
SKBr3 cells; after type I IFN pre-treatment
  percentage of SKBr3 cells induced to apoptosis by Poly IC: 66%
SKBr3 cells; without type I IFN pre-treatment
  percentage of SKBr3 cells induced to apoptosis by Poly IC: 22%
